According to patent publication US12473262B2, “Aryl hydrocarbon receptor activators” (Oregon State University, priority 2019, dated 2025):

Molecular target: aryl hydrocarbon receptor (AhR) (Mus musculus (Mouse), UniProt P30561)
Assay: AhR ligand screening: AhRE-luciferase reporter in transfected Hepa1 cells
Format: cell-based
Conditions: for Fold @ 1 nM: fold change of luciferase expression at 1 nM test compound relative to vehicle (0.1% DMSO); for Fold @ 100 nM: fold change of luciferase expression at 100 nM test compound relative to vehicle (0.1% DMSO); for Fold @ 10 uM: fold change of luciferase expression at 10 uM test compound relative to vehicle (0.1% DMSO); for Fold relative to benchmark @ 100 nM: luciferase expression at 100 nM test compound relative to 100 nM benchmark compound 11-cl-BBQ
From the text: The AhR is a ligand-activated transcription factor that dimerizes with ARNT to regulate gene expression, and genes that are regulated by AhR ligands have AhR response elements (AhRE) in their promotor regions.
Briefly, Hepa1 cells were transfected with a reporter construct consisting of AhRE linked to luciferase. The addition of AhR ligands to the transfected cells induces luciferase production that is directly proportional to the amount of AhR activation. We used this reporter system to identify novel compounds with AhR-activating properties. Transfected Hepa1 cells were plated at a density of 1×10^4 cells/well in 100 μL of cell culture media in 96 well plates and grown overnight. […] Following incubation with the compounds, the media was removed, and cells were harvested with lysis buffer. The lysates were transferred to opaque 96 well plates, where they were assayed well-by-well for luciferase activity by injection of luciferase assay substrate with a 2 sec mixing time and 15 sec integration period on a Tropix TR717 microplate luminometer. Data were expressed as fold induction of luciferase relative to vehicle (0.1% DMSO) treated cells.

Sequence of aryl hydrocarbon receptor (AhR) (P30561 10-805): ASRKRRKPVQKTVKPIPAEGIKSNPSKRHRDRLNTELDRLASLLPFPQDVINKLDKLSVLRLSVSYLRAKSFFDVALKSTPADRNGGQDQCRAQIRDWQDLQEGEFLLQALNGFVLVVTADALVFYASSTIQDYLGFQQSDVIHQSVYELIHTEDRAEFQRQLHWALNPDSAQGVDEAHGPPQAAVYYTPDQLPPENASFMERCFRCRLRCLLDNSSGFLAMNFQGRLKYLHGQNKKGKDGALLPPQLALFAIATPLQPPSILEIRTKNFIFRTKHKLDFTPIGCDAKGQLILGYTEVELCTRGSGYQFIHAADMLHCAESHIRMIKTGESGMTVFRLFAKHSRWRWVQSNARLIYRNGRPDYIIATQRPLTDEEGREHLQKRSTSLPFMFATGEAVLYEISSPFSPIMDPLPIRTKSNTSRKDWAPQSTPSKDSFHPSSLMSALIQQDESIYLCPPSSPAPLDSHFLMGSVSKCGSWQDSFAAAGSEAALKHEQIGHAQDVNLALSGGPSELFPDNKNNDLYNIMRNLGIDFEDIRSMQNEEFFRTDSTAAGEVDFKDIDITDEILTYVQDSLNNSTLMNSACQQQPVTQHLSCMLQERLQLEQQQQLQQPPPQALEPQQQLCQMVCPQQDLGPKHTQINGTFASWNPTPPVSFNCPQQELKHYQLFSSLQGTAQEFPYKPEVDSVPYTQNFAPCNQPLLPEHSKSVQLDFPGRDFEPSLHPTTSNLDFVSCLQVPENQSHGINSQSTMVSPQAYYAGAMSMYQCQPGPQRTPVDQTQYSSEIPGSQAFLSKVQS
Sequence of aryl hydrocarbon receptor (AhR) (P53762 whole entry partner): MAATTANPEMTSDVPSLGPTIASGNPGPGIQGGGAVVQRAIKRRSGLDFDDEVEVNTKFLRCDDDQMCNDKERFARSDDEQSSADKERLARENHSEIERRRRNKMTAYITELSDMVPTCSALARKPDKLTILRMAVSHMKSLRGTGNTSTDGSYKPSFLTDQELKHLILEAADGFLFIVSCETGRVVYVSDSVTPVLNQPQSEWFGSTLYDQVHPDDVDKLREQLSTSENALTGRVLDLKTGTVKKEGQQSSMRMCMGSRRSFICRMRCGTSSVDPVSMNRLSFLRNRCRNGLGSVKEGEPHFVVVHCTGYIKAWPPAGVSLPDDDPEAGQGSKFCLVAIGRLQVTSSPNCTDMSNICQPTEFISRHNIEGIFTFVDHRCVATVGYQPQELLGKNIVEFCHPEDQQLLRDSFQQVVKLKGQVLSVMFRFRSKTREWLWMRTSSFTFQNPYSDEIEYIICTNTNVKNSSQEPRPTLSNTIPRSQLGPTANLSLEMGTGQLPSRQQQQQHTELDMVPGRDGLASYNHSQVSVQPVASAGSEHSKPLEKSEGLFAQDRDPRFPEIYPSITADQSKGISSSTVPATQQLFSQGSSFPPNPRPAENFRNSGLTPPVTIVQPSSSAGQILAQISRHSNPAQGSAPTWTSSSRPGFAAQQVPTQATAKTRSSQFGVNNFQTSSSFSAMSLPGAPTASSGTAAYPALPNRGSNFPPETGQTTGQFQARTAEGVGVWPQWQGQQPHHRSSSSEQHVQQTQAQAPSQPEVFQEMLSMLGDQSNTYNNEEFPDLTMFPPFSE

Fold @ 1 nM [fold]	Fold @ 100 nM [fold]	Fold @ 10 uM [fold]	Fold relative to benchmark @ 100 nM [fold]	SMILES
1	1	18	0.07	Clc1ccc2c(c1)nc1n2Cc2ccccc2-1 [Compound 522, 7-chloro-11H-benzo[4,5]imidazo[2,1-a]isoindole]
1	1	26	0.04	Cc1cccc(-c2nc3cc(Cl)ccc3n2C(=O)c2ccc(F)c(F)c2)c1Cl [Compound 791]
5	3	18	0.1	COC(=O)c1ccc2nc(-c3cccc4ccccc34)n(S(=O)(=O)c3ccc(C#N)cc3)c2c1 [Compound 1362]
1	19	25	0.76	CCc1ccc(S(=O)(=O)n2c(-c3cccc4ccccc34)nc3cc(Cl)ccc32)cc1 [Compound 775]
1	2	24	0.22	COc1ccc(C(=O)n2c(-c3cc4ccccc4s3)nc3ccc(F)cc32)cc1 [Compound 635]
1	1	2	0.03	COC(=O)c1ccc2c(c1)nc(-c1cccc3ccccc13)n2Cc1ccc(F)c(F)c1 [Compound 1338]
1	1	4	0.03	O=C(c1ccc2c(c1)nc(-c1cccc3ccccc13)n2Cc1ccc(SC(F)(F)F)cc1)N1CCCCC1 [Compound 1411]
1	1	5	0.11	COc1ccc2c(c1)nc(-c1cccc3ccccc13)n2C(=O)c1ccccc1 [Compound 639]
1	2	82	0.07	O=C(c1ccc(F)c(F)c1)n1c(-c2csc3ccccc23)nc2ccc(Cl)cc21 [Compound 862]
1	1	2	0.02	Cc1ccc(C(=O)c2c[nH]c3ccc(Cl)cc23)cc1 [Compound 882]
1	1	2	0.04	CC(C)(C)c1cccc(-c2nc3cc(Cl)ccc3n2C(=O)c2ccccc2)c1 [Compound 790]
1	22	24	0.85	O=C(c1ccc(F)c(F)c1)n1c(-c2cccc3ccccc23)nc2cc(OC(F)(F)F)ccc21 [Compound 699]
1	12	75	0.41	O=C(c1ccc(F)c(F)c1)n1c(-c2cc3ccccc3o2)nc2cc(Cl)ccc21 [Compound 857]
1	1	10	0.02	O=C(c1c[nH]c2ccc(Cl)cc12)C1CCCCC1 [Compound 895]
1	2	6	0.07	COC(=O)c1ccc2nc(-c3cccc4ccccc34)n(S(=O)(=O)c3ccc(Cl)cc3)c2c1 [Compound 1386]
1	2	6	0.08	O=C(c1ccccc1)n1c(-c2cccc3c2CCCC3)nc2cc(Cl)ccc21 [Compound 777]
2	32	35	1.23	O=C(c1ccc(F)cc1F)n1c(-c2cccc3ccccc23)nc2cc(Cl)ccc21 [Compound 694]

Fold @ 1 nM [fold]	Fold @ 100 nM [fold]	Fold @ 10 uM [fold]	Fold relative to benchmark @ 100 nM [fold]	SMILES
1	2	14	0.08	COc1ccc(C(=O)n2c(-c3cccc(C(F)(F)F)c3)nc3ccc(Cl)cc32)cc1 [Compound 765]
1	28	32	1.08	O=C(c1ccc(SC(F)(F)F)cc1)n1c(-c2cccc3ccccc23)nc2ccc(Cl)cc21 [Compound 687]
1	2	5	0.07	COC(=O)c1ccc2c(c1)nc(-c1cccc3ccccc13)n2S(=O)(=O)c1ccc(Cl)cc1 [Compound 1385]
1	2	34	0.07	O=C(c1ccccc1)n1c(-c2ccc(F)c3ccccc23)nc2cc(Cl)ccc21 [Compound 863]
1	26	34	1	COc1ccc(C(=O)n2c(-c3cccc4ccccc34)nc3ccc(Cl)cc32)cc1OC [Compound 683]
1	3	48	0.06	O=C(c1ccc(F)c(F)c1)n1c(-c2cccc(C(F)(F)F)c2Cl)nc2cc(Cl)ccc21 [Compound 875]
1	2	34	0.07	O=S(=O)(C1CC1)n1c(-c2cccc3ccccc23)nc2ccc(Cl)cc21 [Compound 784]
1	18	32	0.69	COc1ccc(C(=O)n2c(-c3cccc4ccccc34)nc3cc(Cl)ccc32)cc1OC [Compound 682]
1	1	–	0.04	COc1ccc(C(=O)n2c(-c3cccc4ccccc34)nc3cc(C)ccc32)cc1 [Compound 702]
1	1	34	0.07	O=C(c1ccccc1)n1c(-c2ccc3ccccc3c2)nc2ccc(F)cc21 [Compound 585]
1	1	4	0.03	Fc1ccc(-n2c(-c3cccc4ccccc34)nc3cc(Cl)ccc32)nc1 [Compound 854, 5-chloro-1-(5-fluoropyridin-2-yl)-2-(naphthalen-1-yl)-1H-benzo[d]imidazole]
1	1	29	0.03	COc1ccc(Cn2c(-c3cccc4ccccc34)nc3cc(Cl)ccc32)cc1 [Compound 852]
1	2	2	0.07	O=C(c1ccc2c(c1)nc(-c1cccc3ccccc13)n2S(=O)(=O)c1cccc(F)c1)N1CCCCC1 [Compound 1368]
1	3	42	0.06	Clc1ccc2nc(-c3cccc4ccccc34)n(Cc3ccncc3)c2c1 [Compound 877]
1	2	28	0.07	Clc1ccc2nc(-c3cccc4ccccc34)n(Cc3ccnc4ccccc34)c2c1 [Compound 868]
1	1	1	0.03	O=C(c1ccc2c(c1)nc(-c1cccc3ccccc13)n2S(=O)(=O)c1cccc(F)c1)N1CCOCC1 [Compound 1356]

SMILES	Fold @ 1 nM [fold]	Fold @ 100 nM [fold]	Fold @ 10 uM [fold]	Fold relative to benchmark @ 100 nM [fold]
O=C(c1ccc(F)c(F)c1)n1c(-c2cccc3ccccc23)nc2cc(F)ccc21 [Compound 630]	1	5	9	0.56
O=C(c1cccc2ccccc12)n1c(-c2ccccc2)nc2ccc(Cl)cc21 [Compound 491]	1	1	24	0.03
O=c1c2cccc3cccc(c32)c2nc3ccc(Cl)cc3n12 [Compound 363, 7-chloro-3,10-diazapentacyclo[10.7.1.0^2,10.0^4,9.0^16,20]icosa-1(19),2,4(9),5,7,12,14,16(20),17-nonaen-11-one]	4	14	30	0.69
O=C(c1cccc2ccccc12)n1ccc2cc(Cl)ccc21 [Compound 366]	1	1	11	0.03
